# Source: patent publication US20240279635A1, “BIOFILM ACTIVITY ADJUSTING METHOD” (NATIONAL INSTITUTE FOR MATERIALS SCIENCE, priority 2021, published 2024)
# System: Klebsiella pneumoniae
# Assay: Electric current generation by Klebsiella pneumoniae with electron mediators in a three-electrode electrochemical cell (time-current curve, FIG. 4)
# Type: cell-based
# Details: 100 μM electron mediator, 10 mM glucose, working electrode +0.2 V (vs. Ag/AgCl), 37° C., anaerobic condition, 15 hours, carbon electrodes
# Procedure: The experiment was performed using a three-electrode electrochemical cell having carbon electrodes as the working electrode and counter electrode, and a silver/silver chloride electrode as the reference electrode.
# First, as an electron source, a liquid culture medium (defined medium) containing 10 mM of glucose and 100 μM of electron mediator (see below) was added to the cell described above, to which Klebsiella pneumoniae (optical density (OD): 0.1) was inoculated, then an electric potential of the working electrode was set to +0.2 V (vs. Ag/AgCl) at 37° C., and the culture medium was incubated under anaerobic condition for 15 hours.
# • HNQ: 2-hydroxy-1,4-naphthoquinone • 1-Phenazine: 1-hydroxyphenazine • AQDS: anthraquinone-1,5-disulfonate • AQS: anthraquinone-1-sulfonate • FMN: flavin mono nucleotide • RF: ribobflavin • W/O mediator: no electron mediator
# FIG. 4 is a time-current curve.
structure (smiles),measurement,value
"O=C1C=C(O)C(=O)c2ccccc21 [HNQ, 2-hydroxy-1,4-naphthoquinone]",generated electric current (time-current curve),a large electric current could be generated
